Test results reported in publication PMC4769319, “Cohesin Releases DNA through Asymmetric ATPase-Driven Ring Opening” (Molecular Cell, 2016).

Molecular target: T1, Smc1/Smc3 heterodimer with Scc1-C (cohesin) (Saccharomyces cerevisiae, UniProt P32908+P47037, P32908:D1164E, form not given)
T1 construct: N-terminal tags; Sf9 insect cells; fluorescently labelled for MST; with Sister chromatid cohesion protein 1
T1 sequence (P32908 1-1225 D1164E): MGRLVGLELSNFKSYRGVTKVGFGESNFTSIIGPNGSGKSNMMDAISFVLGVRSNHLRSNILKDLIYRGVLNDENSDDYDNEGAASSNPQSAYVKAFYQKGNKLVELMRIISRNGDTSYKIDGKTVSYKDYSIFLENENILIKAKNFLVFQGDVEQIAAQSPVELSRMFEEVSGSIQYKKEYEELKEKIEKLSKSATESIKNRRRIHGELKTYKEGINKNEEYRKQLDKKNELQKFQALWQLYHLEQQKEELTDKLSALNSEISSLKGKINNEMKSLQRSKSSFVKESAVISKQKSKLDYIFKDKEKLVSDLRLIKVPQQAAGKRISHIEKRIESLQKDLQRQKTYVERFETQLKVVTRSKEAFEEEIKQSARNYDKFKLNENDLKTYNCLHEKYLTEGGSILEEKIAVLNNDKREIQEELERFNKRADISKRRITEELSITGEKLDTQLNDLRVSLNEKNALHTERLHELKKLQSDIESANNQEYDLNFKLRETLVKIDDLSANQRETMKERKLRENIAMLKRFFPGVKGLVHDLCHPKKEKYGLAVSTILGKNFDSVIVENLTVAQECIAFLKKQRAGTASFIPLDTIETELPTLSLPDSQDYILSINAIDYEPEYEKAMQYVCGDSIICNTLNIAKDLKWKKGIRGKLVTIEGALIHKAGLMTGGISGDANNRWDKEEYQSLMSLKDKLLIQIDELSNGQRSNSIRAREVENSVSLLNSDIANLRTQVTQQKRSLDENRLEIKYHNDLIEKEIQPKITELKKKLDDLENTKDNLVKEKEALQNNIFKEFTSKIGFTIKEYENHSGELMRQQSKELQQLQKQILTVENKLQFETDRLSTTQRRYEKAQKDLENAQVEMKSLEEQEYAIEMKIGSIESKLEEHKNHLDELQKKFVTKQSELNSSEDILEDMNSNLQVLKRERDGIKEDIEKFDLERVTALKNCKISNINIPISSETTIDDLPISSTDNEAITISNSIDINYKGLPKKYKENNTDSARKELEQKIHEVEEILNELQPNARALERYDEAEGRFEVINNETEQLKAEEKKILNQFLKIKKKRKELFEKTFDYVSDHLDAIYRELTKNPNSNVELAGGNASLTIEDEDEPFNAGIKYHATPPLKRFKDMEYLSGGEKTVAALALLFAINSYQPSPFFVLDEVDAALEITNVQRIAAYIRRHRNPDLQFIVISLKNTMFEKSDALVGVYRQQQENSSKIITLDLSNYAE
T1 sequence (P47037 1-1230): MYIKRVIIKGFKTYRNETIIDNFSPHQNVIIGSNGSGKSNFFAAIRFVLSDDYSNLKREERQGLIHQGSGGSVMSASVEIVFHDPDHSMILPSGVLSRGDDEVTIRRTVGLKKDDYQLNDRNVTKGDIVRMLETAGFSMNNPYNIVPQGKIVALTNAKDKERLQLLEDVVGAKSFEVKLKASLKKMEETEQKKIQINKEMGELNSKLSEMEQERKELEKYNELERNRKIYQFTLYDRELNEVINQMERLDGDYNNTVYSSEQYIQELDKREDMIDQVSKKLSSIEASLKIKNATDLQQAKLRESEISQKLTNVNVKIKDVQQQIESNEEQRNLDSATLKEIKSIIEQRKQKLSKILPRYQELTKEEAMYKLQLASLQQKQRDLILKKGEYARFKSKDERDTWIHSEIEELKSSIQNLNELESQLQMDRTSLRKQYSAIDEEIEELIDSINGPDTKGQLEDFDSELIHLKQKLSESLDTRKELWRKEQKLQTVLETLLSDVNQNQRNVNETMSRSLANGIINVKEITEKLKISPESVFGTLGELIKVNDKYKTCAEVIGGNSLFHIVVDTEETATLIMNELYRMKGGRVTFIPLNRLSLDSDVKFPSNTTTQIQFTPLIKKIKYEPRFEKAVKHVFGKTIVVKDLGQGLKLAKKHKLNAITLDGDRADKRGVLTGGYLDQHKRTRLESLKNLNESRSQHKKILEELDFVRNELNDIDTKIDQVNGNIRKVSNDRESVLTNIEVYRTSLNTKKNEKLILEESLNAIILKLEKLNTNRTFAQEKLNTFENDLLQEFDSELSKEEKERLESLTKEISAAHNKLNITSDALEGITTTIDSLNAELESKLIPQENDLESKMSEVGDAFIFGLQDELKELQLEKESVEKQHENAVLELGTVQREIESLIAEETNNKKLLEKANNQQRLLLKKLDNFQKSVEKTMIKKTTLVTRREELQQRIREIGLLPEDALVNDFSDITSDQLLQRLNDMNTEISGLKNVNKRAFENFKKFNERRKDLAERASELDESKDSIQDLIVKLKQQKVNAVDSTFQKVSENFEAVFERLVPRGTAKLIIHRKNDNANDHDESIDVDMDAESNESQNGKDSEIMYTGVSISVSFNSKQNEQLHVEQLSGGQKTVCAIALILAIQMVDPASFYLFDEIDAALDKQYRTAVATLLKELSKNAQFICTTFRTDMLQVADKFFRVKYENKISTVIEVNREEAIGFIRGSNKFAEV
T1 sequence (Q12158 1-566 partner): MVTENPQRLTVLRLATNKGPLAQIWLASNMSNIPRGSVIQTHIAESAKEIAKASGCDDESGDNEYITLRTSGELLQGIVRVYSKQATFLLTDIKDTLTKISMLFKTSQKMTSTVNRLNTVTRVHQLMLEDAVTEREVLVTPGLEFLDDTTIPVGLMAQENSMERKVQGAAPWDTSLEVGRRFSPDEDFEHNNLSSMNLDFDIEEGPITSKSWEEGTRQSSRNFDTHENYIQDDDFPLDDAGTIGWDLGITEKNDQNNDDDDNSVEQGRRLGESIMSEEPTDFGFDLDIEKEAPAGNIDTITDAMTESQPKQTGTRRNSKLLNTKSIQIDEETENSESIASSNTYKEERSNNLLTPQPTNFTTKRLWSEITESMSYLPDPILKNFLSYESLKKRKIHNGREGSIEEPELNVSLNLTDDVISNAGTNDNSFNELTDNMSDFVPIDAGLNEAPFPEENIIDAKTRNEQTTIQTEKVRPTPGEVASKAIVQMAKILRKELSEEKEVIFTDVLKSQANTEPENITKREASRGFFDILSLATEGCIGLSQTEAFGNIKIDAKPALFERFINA
Assay: microscale thermophoresis
Assay type: binding
Conditions: fluorescently labelled protein; Smc1 co-purified with Scc1-C, plus Smc3; read-out: affinity
Source text: microscale thermophoresis on Smc1/Smc3 heterodimer with Scc1-C (cohesin) | Smc1 L1129V, D1164E and E1158Q mutants all had wild-type-like affinity to both ATP and ADP | wild-type and mutant cohesin complexes appear to have similar affinities to ADP

Structure (SMILES) | Kd
Nc1ncnc2c1ncn2[C@@H]1O[C@H](COP(=O)(O)OP(=O)(O)O)[C@@H](O)[C@H]1O [ADP] | > 1000 µM
Nc1ncnc2c1ncn2[C@@H]1O[C@H](COP(=O)(O)OP(=O)(O)OP(=O)(O)O)[C@@H](O)[C@H]1O [ATP] | 542 ± 188 µM
